PubChem BioAssay (NCI)
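GI50 = concentration required for 50% inhibition of growth. The concentration for full growth arrest is given as TGI.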

Tests used:
Experiment in all cases: inhibition of tumour cell growth, NCI panel, 384-well format
MALME-3M melanoma = test system: MALME-3M melanoma
SF-539 CNS = test system: SF-539 CNS
PC-3 prostate = test system: PC-3 prostate
DU-145 prostate = test system: DU-145 prostate
HT29 colon = test system: HT29 colon
NCI-H23 lung = test system: NCI-H23 lung
OVCAR-4 ovarian = test system: OVCAR-4 ovarian
HCT-15 colon = test system: HCT-15 colon
NCI-H460 NSCLC = test system: NCI-H460 NSCLC
SNB-19 CNS = test system: SNB-19 CNS
MDA-MB-468 breast = test system: MDA-MB-468 breast
OVCAR-5 ovarian = test system: OVCAR-5 ovarian
KM12 colon = test system: KM12 colon
MDA-MB-435 melanoma = test system: MDA-MB-435 melanoma
BT-549 breast = test system: BT-549 breast
U251 glioblastoma = test system: U251 glioblastoma
SN12C renal = test system: SN12C renal
ACHN renal = test system: ACHN renal
K-562 leukemia = test system: K-562 leukemia
SK-MEL-2 melanoma = test system: SK-MEL-2 melanoma
SK-MEL-28 melanoma = test system: SK-MEL-28 melanoma
NCI/ADR-RES ovarian = test system: NCI/ADR-RES ovarian
SF-295 CNS = test system: SF-295 CNS
SK-OV-3 ovarian = test system: SK-OV-3 ovarian
COLO 205 colon = test system: COLO 205 colon
SK-MEL-5 melanoma = test system: SK-MEL-5 melanoma
HS 578T breast = test system: HS 578T breast
HCT-116 colon = test system: HCT-116 colon
MDA-MB-231 breast = test system: MDA-MB-231 breast

**Q.** With `O=C(c1ccc(/C=C/c2n[nH]c3ccccc23)cc1)N1CCNCC1` as the compound, how does the GI50 (MALME-3M melanoma) read?
**A.** The GI50 was 2.7 µM.

**Q.** What about the TGI (MALME-3M melanoma) of the same compound?
**A.** Its TGI is 10.8 µM.

**Q.** And the GI50 (SF-539 CNS)?
**A.** The GI50 was 1.53 µM.

**Q.** And the TGI (SF-539 CNS)?
**A.** Its TGI is 5.75 µM.

**Q.** What about the GI50 (PC-3 prostate) of the same compound?
**A.** Its GI50 is 5.28 µM.

**Q.** What about the TGI (PC-3 prostate) of the same compound?
**A.** The TGI was 21.2 µM.

**Q.** And the GI50 (DU-145 prostate)?
**A.** The GI50 was 5.22 µM.

**Q.** And the TGI (DU-145 prostate)?
**A.** Its TGI is 20.7 µM.

**Q.** What about the GI50 (HT29 colon) of the same compound?
**A.** Its GI50 is 3.1 µM.

**Q.** What about the TGI (HT29 colon) of the same compound?
**A.** Its TGI is 14.6 µM.

**Q.** And the GI50 (NCI-H23 lung)?
**A.** The GI50 was 2.69 µM.

**Q.** What about the TGI (NCI-H23 lung) of the same compound?
**A.** Its TGI is 13.6 µM.

**Q.** And the GI50 (OVCAR-4 ovarian)?
**A.** The GI50 was 21.7 µM.

**Q.** What about the TGI (OVCAR-4 ovarian) of the same compound?
**A.** Its TGI is 37.5 µM.

**Q.** What about the GI50 (HCT-15 colon) of the same compound?
**A.** The GI50 was 3.41 µM.

**Q.** And the TGI (HCT-15 colon)?
**A.** The TGI was 18.9 µM.

**Q.** What about the GI50 (NCI-H460 NSCLC) of the same compound?
**A.** Its GI50 is 0.543 µM.

**Q.** And the TGI (NCI-H460 NSCLC)?
**A.** Its TGI is 10.9 µM.

**Q.** What about the GI50 (SNB-19 CNS) of the same compound?
**A.** The GI50 was 12.1 µM.

**Q.** What about the TGI (SNB-19 CNS) of the same compound?
**A.** The TGI was 27.7 µM.

**Q.** What about the GI50 (MDA-MB-468 breast) of the same compound?
**A.** Its GI50 is 1.07 µM.

**Q.** And the TGI (MDA-MB-468 breast)?
**A.** Its TGI is 16.6 µM.

**Q.** What about the GI50 (OVCAR-5 ovarian) of the same compound?
**A.** The GI50 was 3.48 µM.

**Q.** What about the TGI (OVCAR-5 ovarian) of the same compound?
**A.** The TGI was > 100 µM.

**Q.** And the GI50 (KM12 colon)?
**A.** Its GI50 is 0.118 µM.

**Q.** And the TGI (KM12 colon)?
**A.** The TGI was 10.8 µM.

**Q.** What about the GI50 (MDA-MB-435 melanoma) of the same compound?
**A.** Its GI50 is 2.01 µM.

**Q.** And the TGI (MDA-MB-435 melanoma)?
**A.** The TGI was 13.3 µM.

**Q.** What about the GI50 (BT-549 breast) of the same compound?
**A.** Its GI50 is 0.597 µM.

**Q.** What about the TGI (BT-549 breast) of the same compound?
**A.** The TGI was 2.29 µM.

**Q.** And the GI50 (U251 glioblastoma)?
**A.** Its GI50 is 11.2 µM.

**Q.** And the TGI (U251 glioblastoma)?
**A.** The TGI was 23.7 µM.

**Q.** What about the GI50 (SN12C renal) of the same compound?
**A.** Its GI50 is 1.88 µM.

**Q.** And the TGI (SN12C renal)?
**A.** Its TGI is 10.6 µM.

**Q.** And the GI50 (ACHN renal)?
**A.** Its GI50 is 4.29 µM.

**Q.** What about the TGI (ACHN renal) of the same compound?
**A.** The TGI was 18.3 µM.

**Q.** What about the GI50 (K-562 leukemia) of the same compound?
**A.** Its GI50 is 0.214 µM.

**Q.** And the TGI (K-562 leukemia)?
**A.** The TGI was 1.08 µM.

**Q.** What about the GI50 (SK-MEL-2 melanoma) of the same compound?
**A.** Its GI50 is 14.5 µM.

**Q.** And the TGI (SK-MEL-2 melanoma)?
**A.** The TGI was 27.7 µM.

**Q.** And the GI50 (SK-MEL-28 melanoma)?
**A.** Its GI50 is 11.7 µM.

**Q.** What about the TGI (SK-MEL-28 melanoma) of the same compound?
**A.** The TGI was 24 µM.

**Q.** What about the GI50 (NCI/ADR-RES ovarian) of the same compound?
**A.** Its GI50 is 13.8 µM.

**Q.** And the TGI (NCI/ADR-RES ovarian)?
**A.** The TGI was 26.9 µM.

**Q.** What about the GI50 (SF-295 CNS) of the same compound?
**A.** The GI50 was 2.12 µM.

**Q.** And the TGI (SF-295 CNS)?
**A.** Its TGI is 17.3 µM.

**Q.** What about the GI50 (SK-OV-3 ovarian) of the same compound?
**A.** The GI50 was 7.59 µM.

**Q.** And the TGI (SK-OV-3 ovarian)?
**A.** Its TGI is 21 µM.

**Q.** And the GI50 (COLO 205 colon)?
**A.** Its GI50 is 0.635 µM.

**Q.** And the TGI (COLO 205 colon)?
**A.** The TGI was 3.89 µM.

**Q.** What about the GI50 (SK-MEL-5 melanoma) of the same compound?
**A.** Its GI50 is 5.38 µM.

**Q.** What about the TGI (SK-MEL-5 melanoma) of the same compound?
**A.** Its TGI is 19.4 µM.

**Q.** And the GI50 (HS 578T breast)?
**A.** Its GI50 is 2.47 µM.

**Q.** What about the TGI (HS 578T breast) of the same compound?
**A.** The TGI was 7.17 µM.

**Q.** And the GI50 (HCT-116 colon)?
**A.** Its GI50 is 1.77 µM.

**Q.** And the TGI (HCT-116 colon)?
**A.** Its TGI is 18.6 µM.

**Q.** What about the GI50 (MDA-MB-231 breast) of the same compound?
**A.** Its GI50 is 3.41 µM.

**Q.** And the TGI (MDA-MB-231 breast)?
**A.** Its TGI is 17.9 µM.
